Experimental data from publication PMC9553805 (Clinical Pharmacokinetics, 2022).
Several values for one entry are separate records, joined by “and”; a condition that tells them apart may be missing. Equal values may be shown once. Read-outs that look alike come from different tables or passages of the source.

Experiments:
CYP3A4 [1] = target: T1, CYP3A4 (Homo sapiens, UniProt P08684); experiment: Part D: effect of steady-state tucatinib on pharmacokinetics of midazolam; conditions: for clinical classification as inhibitor of CYP3A/CYP3A4: steady-state tucatinib 300 mg BID, midazolam probe
CYP2C9 [2] = target: CYP2C9 (Homo sapiens, UniProt P11712); experiment: Part D: effect of steady-state tucatinib on pharmacokinetics of tolbutamide
P-glycoprotein (P-gp) [3] = target: P-glycoprotein (P-gp) (Homo sapiens, UniProt P08183); experiment: Part E: effect of steady-state tucatinib on pharmacokinetics of digoxin; type: in vivo; conditions: for clinical classification as inhibitor of P-glycoprotein: steady-state tucatinib 300 mg BID, digoxin probe
[4] = humans, cited from earlier work
CYP3A4/CYP2C8 = experiment: Part B: effect of rifampin; type: in vivo, human
CYP2C8 [5] = target: T2, CYP2C8 (Homo sapiens, UniProt P10632)
T2 sequence (P10632 1-490): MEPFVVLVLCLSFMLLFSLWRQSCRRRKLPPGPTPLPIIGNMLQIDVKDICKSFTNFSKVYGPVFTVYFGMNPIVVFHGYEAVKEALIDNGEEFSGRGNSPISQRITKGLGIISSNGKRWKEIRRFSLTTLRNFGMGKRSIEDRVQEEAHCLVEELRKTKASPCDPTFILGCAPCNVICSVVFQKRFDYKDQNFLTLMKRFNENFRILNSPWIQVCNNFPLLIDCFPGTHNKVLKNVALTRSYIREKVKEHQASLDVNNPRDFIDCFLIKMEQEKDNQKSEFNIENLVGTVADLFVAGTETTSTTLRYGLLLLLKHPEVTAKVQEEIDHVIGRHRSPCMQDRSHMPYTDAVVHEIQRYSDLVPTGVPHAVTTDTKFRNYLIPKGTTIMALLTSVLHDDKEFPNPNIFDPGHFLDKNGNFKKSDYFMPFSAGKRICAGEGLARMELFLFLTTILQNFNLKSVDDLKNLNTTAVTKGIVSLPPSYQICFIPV

CYP3A4 [6] = target: T1, CYP3A4; experiment: Part A: effect of itraconazole; type: in vivo
CYP2C8 [7] = target: T2, CYP2C8; conditions: for clinical classification as inhibitor of CYP2C8: steady-state tucatinib 300 mg BID, repaglinide probe
CYP2C9 [8] = conditions: in vitro; cited from earlier work
CYP2C8 [9] = conditions: in vitro; cited from earlier work
P-glycoprotein (P-gp) [10] = conditions: in vitro; cited from earlier work
[11] = cited from earlier work
CYP2C8 [12] = type: in vivo, human; conditions: 84 subjects enrolled in this study; regardless of phenotype
Safety assessments = type: in vivo, human
CYP3A4 [13] = conditions: in vitro; cited from earlier work
[14] = with tucatinib vs tolbutamide/midazolam alone
[15] = tolbutamide/midazolam + tucatinib vs tolbutamide/midazolam alone
[16] = digoxin + tucatinib vs digoxin alone
[17] = in the presence of rifampin vs tucatinib alone
[18] = following gemfibrozil vs tucatinib alone
[19] = coadministration of itraconazole vs tucatinib alone
[20] = tucatinib + rifampin vs tucatinib alone
[21] = tucatinib + gemfibrozil vs tucatinib alone
[22] = tucatinib + itraconazole vs tucatinib alone

Sequence of P-glycoprotein (P-gp) (Homo sapiens, UniProt P08183) (P08183 whole entry): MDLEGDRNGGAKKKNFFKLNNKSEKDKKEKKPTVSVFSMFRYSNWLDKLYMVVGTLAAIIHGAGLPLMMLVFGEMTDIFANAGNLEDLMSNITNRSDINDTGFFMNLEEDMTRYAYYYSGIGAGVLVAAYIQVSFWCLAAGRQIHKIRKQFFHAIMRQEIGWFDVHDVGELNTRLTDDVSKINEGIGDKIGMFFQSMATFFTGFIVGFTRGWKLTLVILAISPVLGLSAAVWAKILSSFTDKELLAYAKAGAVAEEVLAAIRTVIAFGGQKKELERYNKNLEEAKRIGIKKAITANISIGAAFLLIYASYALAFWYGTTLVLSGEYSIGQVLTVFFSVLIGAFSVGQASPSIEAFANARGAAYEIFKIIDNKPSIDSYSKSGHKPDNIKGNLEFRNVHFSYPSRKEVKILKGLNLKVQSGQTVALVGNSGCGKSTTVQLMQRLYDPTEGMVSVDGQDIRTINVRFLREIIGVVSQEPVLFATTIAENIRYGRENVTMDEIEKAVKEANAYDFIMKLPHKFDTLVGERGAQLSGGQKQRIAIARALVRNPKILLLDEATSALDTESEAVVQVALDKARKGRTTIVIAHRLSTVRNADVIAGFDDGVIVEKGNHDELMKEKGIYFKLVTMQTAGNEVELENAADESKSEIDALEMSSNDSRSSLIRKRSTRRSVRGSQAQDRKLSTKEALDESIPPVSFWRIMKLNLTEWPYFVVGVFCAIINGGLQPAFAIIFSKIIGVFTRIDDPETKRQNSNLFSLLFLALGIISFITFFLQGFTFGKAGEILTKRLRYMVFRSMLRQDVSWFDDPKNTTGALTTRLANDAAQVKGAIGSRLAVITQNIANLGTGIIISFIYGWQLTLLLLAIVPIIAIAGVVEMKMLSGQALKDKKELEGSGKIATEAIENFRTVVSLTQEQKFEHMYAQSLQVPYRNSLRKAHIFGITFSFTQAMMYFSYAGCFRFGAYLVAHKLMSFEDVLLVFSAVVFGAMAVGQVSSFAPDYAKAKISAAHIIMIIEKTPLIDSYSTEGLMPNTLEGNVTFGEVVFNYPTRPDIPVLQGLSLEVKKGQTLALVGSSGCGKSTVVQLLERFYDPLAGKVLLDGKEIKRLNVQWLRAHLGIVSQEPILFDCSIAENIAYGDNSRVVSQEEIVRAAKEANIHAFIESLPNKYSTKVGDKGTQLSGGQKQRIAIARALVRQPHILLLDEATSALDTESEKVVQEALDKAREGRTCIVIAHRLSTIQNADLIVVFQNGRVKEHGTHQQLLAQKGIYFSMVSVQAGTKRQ
T1 sequence (P08684 whole entry): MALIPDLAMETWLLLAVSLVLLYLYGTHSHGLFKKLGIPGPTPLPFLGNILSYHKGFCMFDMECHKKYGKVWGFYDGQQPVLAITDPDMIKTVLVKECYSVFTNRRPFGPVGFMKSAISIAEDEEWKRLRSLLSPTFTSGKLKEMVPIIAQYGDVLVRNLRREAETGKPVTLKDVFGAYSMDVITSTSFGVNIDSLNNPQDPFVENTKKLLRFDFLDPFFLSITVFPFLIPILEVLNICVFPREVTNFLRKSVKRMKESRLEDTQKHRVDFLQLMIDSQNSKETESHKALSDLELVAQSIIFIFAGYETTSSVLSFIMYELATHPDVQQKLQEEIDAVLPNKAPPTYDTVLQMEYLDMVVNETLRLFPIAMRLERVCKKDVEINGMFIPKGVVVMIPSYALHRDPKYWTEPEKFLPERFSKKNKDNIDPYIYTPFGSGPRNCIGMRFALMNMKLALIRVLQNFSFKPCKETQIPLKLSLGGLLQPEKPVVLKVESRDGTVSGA
Sequence of CYP2C9 (Homo sapiens, UniProt P11712) (P11712 whole entry): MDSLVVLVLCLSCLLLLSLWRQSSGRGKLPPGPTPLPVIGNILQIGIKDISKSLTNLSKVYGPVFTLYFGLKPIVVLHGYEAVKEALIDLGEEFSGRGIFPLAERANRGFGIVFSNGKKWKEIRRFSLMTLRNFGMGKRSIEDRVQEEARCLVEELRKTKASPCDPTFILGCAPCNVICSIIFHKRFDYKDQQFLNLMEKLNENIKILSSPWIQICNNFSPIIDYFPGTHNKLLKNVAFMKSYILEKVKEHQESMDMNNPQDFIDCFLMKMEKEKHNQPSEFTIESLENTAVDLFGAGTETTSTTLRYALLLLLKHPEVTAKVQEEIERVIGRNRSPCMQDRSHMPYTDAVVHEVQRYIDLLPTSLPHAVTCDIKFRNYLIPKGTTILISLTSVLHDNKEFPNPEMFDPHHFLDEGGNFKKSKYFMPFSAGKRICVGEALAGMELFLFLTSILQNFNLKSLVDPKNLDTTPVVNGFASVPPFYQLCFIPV

With OCc1ncc2n1-c1ccc(Cl)cc1C(c1ccccc1F)=NC2 [1-hydroxymidazolam] the “effect of tucatinib on exposure based on AUC0–last and AUC0–inf” value (CYP3A4 [1]; [14]) was “no effect” and the “reduction of Cmax” value (CYP3A4 [1]; [14]) was “approximately 40%”.

With CCCCNC(=O)NS(=O)(=O)c1ccc(CO)cc1 [4-hydroxytolbutamide, reference compound] the “plasma exposures with vs without tucatinib” value (CYP2C9 [2]; [15]) was “Similar”.

For C[C@H]1O[C@@H](O[C@H]2[C@@H](O)C[C@H](O[C@H]3[C@@H](O)C[C@H](O[C@H]4CC[C@@]5(C)[C@H](CC[C@@H]6[C@@H]5C[C@@H](O)[C@]5(C)[C@@H](C7=CC(=O)OC7)CC[C@]65O)C4)O[C@@H]3C)O[C@@H]2C)C[C@H](O)[C@@H]1O [Digoxin, digoxin], the “increase in plasma exposure based on AUC0–inf” value (from here on “increase … on AUC0–inf”) (P-glycoprotein (P-gp) [3]; [16]) was “approximately 1.5 fold”, the “increase in plasma exposure based on AUC0–last” value (“increase … on AUC0–last” for short) (P-glycoprotein (P-gp) [3]; [16]) was “approximately 1.5 fold” and the “increase in plasma exposure based on Cmax” value (from here on “increase … on Cmax”) (P-glycoprotein (P-gp) [3]; [16]) was roughly 2.4 fold.

With Cc1ncc2n1-c1ccc(Cl)cc1C(c1ccccc1F)=NC2 [Midazolam, midazolam] the “increase … on AUC0–inf” value (CYP3A4 [1]; [15]) was 5.7 fold and > 5 fold, the “increase … on AUC0–last” value (CYP3A4 [1]; [15]) was 5.3 fold and the “increase … on Cmax” value (CYP3A4 [1]; [15]) was 3.0 fold. For the same compound, the “reduction of metabolic ratio for AUC0–inf” value (CYP3A4 [1]; [14]) was “approximately 83%” and the “reduction of metabolic ratio for Cmax” value (CYP3A4 [1]; [14]) was roughly 80%.

For Cc1cc(Nc2ncnc3ccc(NC4=NC(C)(CO)CO4)cc23)ccc1Oc1ccn2ncnc2c1 (stereo not shown) [ONT-993], the “radioactive component in feces, share of the dose” value ([4]; feces) is given as 37%, the “radioactive component in urine, share of the dose” value ([4]; urine) is given as 1.5% and the “metabolic ratio for AUC0–inf, fold higher” value (CYP3A4/CYP2C8; [17]) is given as 1.4 fold. For the same compound, the “metabolic ratio for Cmax, fold higher” value (CYP3A4/CYP2C8; [17]) was 3.3 fold, the “decrease of metabolic ratio for AUC0–inf” value (CYP2C8 [5]; [18]) was “approximately 71%” and the “decrease of metabolic ratio for Cmax” value (CYP2C8 [5]; [18]) was roughly 81%. The “geometric least squares mean ratio for AUC0–inf” value (CYP3A4 [6]; [19]) was 1.6 and the “geometric least squares mean ratio for Cmax” value (CYP3A4 [6]; [19]) was 2.0.

For CCOc1cc(CC(=O)N[C@@H](CC(C)C)c2ccccc2N2CCCCC2)ccc1C(=O)O [Repaglinide, repaglinide, reference compound], the “increase … on Cmax” value (CYP2C8 [7]; repaglinide + tucatinib vs repaglinide alone) was roughly 1.7 fold.

For Cc1cc(Nc2ncnc3ccc(NC4=NC(C)(C)CO4)cc23)ccc1Oc1ccn2ncnc2c1 [Tucatinib], the “type of inhibition of CYP2C9” value (CYP2C9 [8]) is given as “competitive inhibition”, the “type of inhibition of CYP2C8” value (CYP2C8 [9]) is given as “competitive inhibition” and the “type of inhibition of P-glycoprotein (P-gp)” value (P-glycoprotein (P-gp) [10]) is given as “competitive inhibition”. The “clinical classification as inhibitor of P-glycoprotein” value (P-glycoprotein (P-gp) [3]) was “weak inhibitor”, the “clinical classification as inhibitor of P-glycoprotein” value (P-glycoprotein (P-gp) [3]; listed as tucatinib) was “only weakly inhibits” and the “impact of food on tucatinib exposures” value [11] was “no clinically relevant impact”. The “tucatinib exposures by CYP2C8 metabolizer phenotype” value (CYP2C8 [12]) was “similar”, the “participants with serum creatinine increases” value (Safety assessments; Part A) was 50% and the “participants with serum creatinine increases” value (Safety assessments; Part B) was 4%. For the same compound, the “participants with serum creatinine increases” value (Safety assessments; Part D) was 71%, the “participants with serum creatinine increases” value (Safety assessments; Part E) was 54% and the “Grade 3 or higher events” value (Safety assessments; Parts A through E overall) was “No Grade 3 or higher events”. The “TEAEs considered Grade 1 (events)” value (Safety assessments; Parts A through E overall) was 65, the “total number of TEAEs” value (Safety assessments; Parts A through E overall) was 71 and the “subjects reporting TEAEs” value (Safety assessments; Parts A through E overall, 37 of 114 subjects) was 32.5%. The tolerability (Safety assessments; Parts A–E, alone and with co-administered drugs) was “well tolerated”, the “events of ALT elevation reported as Grade 1 TEAEs” value (Safety assessments; Parts D and E) was “five” and the “renal function by cystatin C levels” value (Safety assessments; Parts D and E) was “did not reveal any elevated values”. The “inactivation of CYP3A” value (CYP3A4 [13]) was “time/metabolism-dependent inactivation”, the “type of inhibition of CYP3A4” value (CYP3A4 [13]) was “competitive inhibition” and the “decrease in plasma exposure based on AUC0–inf” value (CYP3A4/CYP2C8; [20]) was 48%. The “decrease in plasma exposure based on AUC0–last” value (CYP3A4/CYP2C8; [20]) was “approximately 48%”, the “decrease in plasma exposure based on Cmax” value (CYP3A4/CYP2C8; [20]) was roughly 37% and the “decrease in plasma exposure based on AUC0–inf” value (CYP3A4/CYP2C8; tucatinib + rifampin vs tucatinib alone, listed as tucatinib) was “approximately 48%”. The “increase … on AUC0–inf” value (CYP2C8 [5]; [21]) was roughly 3.0 fold, the “increase … on AUC0–last” value (CYP2C8 [5]; [21]) was “approximately 3.0 fold” and the “increase … on Cmax” value (CYP2C8 [5]; [21]) was roughly 1.6 fold. For the same compound, the “clinical classification as inhibitor of CYP2C8” value (CYP2C8 [7]) was “weak inhibitor”, the “clinical classification as inhibitor of CYP2C8” value (CYP2C8 [7]; listed as tucatinib) was “only weakly inhibits” and the “clinical classification as inhibitor of CYP3A/CYP3A4” value (CYP3A4 [1]) was “strong inhibitor”. The “clinical classification as inhibitor of CYP3A/CYP3A4” value (CYP3A4 [1]; listed as tucatinib) was “strong CYP3A4 inhibitor”, the “impact on CYP2C9-mediated metabolism in humans” value (CYP2C9 [2]; steady-state tucatinib 300 mg BID, tolbutamide probe) was “no impact” and the “increase … on AUC0–inf” value (CYP3A4 [6]; [22]) was ~ 1.3 fold. For the same compound, the “increase … on AUC0–last” value (CYP3A4 [6]; [22]) was “approximately 1.3 fold” and the “increase … on Cmax” value (CYP3A4 [6]; [22]) was “approximately 1.3 fold”.
